Reference: PMC8945229, “Development and Biological Characterization of a Novel Selective TrkA Agonist with Neuroprotective Properties against Amyloid Toxicity” (Biomedicines, 2022)

Experiments:
TrkC = molecular target: T1, TrkC (Homo sapiens, UniProt Q16288); assay: TrkC phosphorylation in NIH-3T3 cells stably transfected with TrkC; type: cell-based; conditions: 500 nM, 30′
T1 construct: expressed in transfected cells
Method: For immunoprecipitation experiments PC12 or HEK293T, cells were used when at 70–80% confluent. Cells were starved of serum for 4 h and subsequently treated with 100 ng/mL NGF or 500 nM of compound ENT-A013 for 30′. Cells were then lysed in Pierce™ IP Lysis Buffer (87788, Thermo Fischer Scientific, Waltham, MA, USA) containing proteases (539138, Calbiochem, Darmstadt, Germany) and phosphatase inhibitors (524629, Calbiochem, Darmstadt, Germany). Lysates were then immunoprecipitated overnight at 4 °C with TrkA antibody (1:100, 06-574, Sigma-Aldrich, St. Louis, MO, USA) (Table S1) or p75^NTR antibody (1:100, ab6172, Abcam plc., Cambridge, UK) followed by 4 h incubation with protein G-plus agarose beads (sc-2002, Santa Cruz Biotechnology, Inc., Dallas, TX, USA). Beads were then collected, washed 3X with lysis buffer, resuspended in SDS loading buffer and subjected to Western blot against phosphorylated Tyrosine (1:1000, BAM1676, R&D Systems, Inc., Minneapolis, MN, USA) or Traf6 antibody (1:2000, ab33915, Abcam, plc., Cambridge, UK). […]
phosphorylated any of those. […] Quantification (E) […]
Supplementary Figure S3: Primary DRG neurons were cultured in the presence of ENT-A013 (500nM, supplemented every 48hrs) and a neutralizing antibody against NGF for 5 days and then neurite length was measured by immunostaining against Tuj1 . […]

[1] = test system: HEK cells transfected with p75NTR; assay: CellTox assay in serum-starved HEK cells transfected with p75NTR; type: cell-based; conditions: 500 nM, 24hrs
Method: (A) HEK cells transfected with p75NTR and Traf6 were treated with ENT-A013 (500nM) or NGF (100ng/ml) for 30’ and then were subjected to immunoprecipitation experiments against p75.
(C) HEK cells transfected with p75NTR were starved from serum and treated with ENT-A013 (500nM) or NGF (100ng/ml) for 24hrs and subsequently subjected to CellTox assay. […]
difference between ENT-A013 treated group and negative control (Serum Free).
(1 picture or pasted object on this page, not shown here)

T1 sequence (Q16288 32-839, species assumed): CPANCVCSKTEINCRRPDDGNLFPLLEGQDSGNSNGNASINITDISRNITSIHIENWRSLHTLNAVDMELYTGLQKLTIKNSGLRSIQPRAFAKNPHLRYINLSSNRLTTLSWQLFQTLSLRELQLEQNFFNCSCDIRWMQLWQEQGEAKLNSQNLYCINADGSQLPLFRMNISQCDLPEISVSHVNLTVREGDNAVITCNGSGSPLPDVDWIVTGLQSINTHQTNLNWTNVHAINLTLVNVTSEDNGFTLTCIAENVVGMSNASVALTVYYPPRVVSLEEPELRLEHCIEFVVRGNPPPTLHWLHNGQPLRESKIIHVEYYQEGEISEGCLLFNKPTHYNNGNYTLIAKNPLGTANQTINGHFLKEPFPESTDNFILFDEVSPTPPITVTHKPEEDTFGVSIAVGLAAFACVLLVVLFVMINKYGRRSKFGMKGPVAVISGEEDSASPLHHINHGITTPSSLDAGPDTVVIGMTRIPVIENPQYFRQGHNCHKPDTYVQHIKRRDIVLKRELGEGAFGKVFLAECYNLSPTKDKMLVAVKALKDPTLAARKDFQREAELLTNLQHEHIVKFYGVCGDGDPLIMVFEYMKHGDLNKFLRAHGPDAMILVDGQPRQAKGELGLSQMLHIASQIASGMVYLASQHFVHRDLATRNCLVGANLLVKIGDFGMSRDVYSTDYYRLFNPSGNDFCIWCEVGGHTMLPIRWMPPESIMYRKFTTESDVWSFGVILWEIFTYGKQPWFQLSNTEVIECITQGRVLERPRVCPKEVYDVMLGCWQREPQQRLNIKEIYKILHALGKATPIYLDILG

CC12CCC(O)CC1=CCC1C2CCC2(C)C1CCC21CC1C=CBr [ENT-A013, (2′R,3S,17S)-2′-(2-Bromovinyl)-5-Androstene-17,1′-Cyclopropan-3-ol]
TrkC phosphorylation (in words) (TrkC): did not induce phosphorylation | cell death vs negative control (Serum Free) (in words) [1]: no significant
